According to patent publication US6030960A, “Method of treating hepatitis virus infections” (priority 1998, dated 2000):
≈ marks a conversion by molar mass, not a printed value. Where “and” joins values, the source holds several entries; their conditions need not be identical. Identical values can stand only once. Entries after “also recorded” stand apart in the source; their conditions may differ.

What was measured:
[1] = Cytotoxicity of alkyl lipids, neutral red dye uptake (Table 1); assay type: cell-based; conditions: human, hep-g2 cells
Excerpt: Initially, evaluations of the alkyl lipids were done to determine whether the compounds were cytotoxic to the cells at concentrations having anti-HBV activity. The assay methodology is szt forth in Korba and Germ, Antiviral Res., 19, 55-70 (1992), incorporated by reference herein. Briefly, these cell cytotoxicity evaluations were done in 96-well plates seeded with HEP-G2 cell monolayers. The hepatoblastoma cell line HEP-G2 transfected with a plasmid carrying the gene that confers resistance to […] and four 5'-3' tandem copies of the Hepatitis B virus genome was obtained from Dr. George Acs. Proc. Natl. Acad. Sci. USA, 84, 1005-1009 (1987). Serial concentrations of compound were added to the RPMI-1640 growth medium and the growth medium was added to the 96-well plates containing the cell monolayers. The cells were incubated for a total of nine days at 37° C. The compound-containing medium was periodically replaced. Each compound was tested at four serial concentrations in triplicate. After nine days of treatment and incubation, 0.01% neutral red dye (Sigma, Inc.) was added to the overlay medium. Cell cytotoxicity was quantitated by measuring the average A510. Values in Table 1 represent the percentage of average A510 values (±standard deviation) relative to nine non-treated control wells.

Hepatitis B virus [2] = assay: Effect on synthesis of antigen markers in persistently infected human HEP G2 cell cultures (Table 7); assay type: cell-based; conditions: for activity at 10 µM: Hepatitis B virus, HepG2, 216 h
How it was run: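 Persistently infected HepG2 cells treated with compound for nine days at 37° C. Culture medium then harvested: HBsAg and HBeAg quantified by EIA, virion DNA by hybridisation-based DNA measurement. Sensitivity cut-off 0.1 pg DNA/ml medium.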

Hepatitis B virus [3] = assay: Anti-hepatitis B virus activity in HEP-G2 cells persistently infected with HBV (Table 2); assay type: cell-based; conditions: for activity at 10 µM: Hepatitis B virus, HepG2, 216 h
Method: HEP-G2 cells persistently infected with HBV were treated daily with fresh D-MEM containing 20% FBS and 10 μM compound. After 9 days incubation and treatment, the overlay medium was harvested to assay the quantity of Hepatitis B virus s antigen (HBsAg) and HBeAg by EIA (Abbott Laboratories). The overlay medium was diluted to levels of antigen in the linear range of the assay. Standard curves using dilutions of positive HBsAg and HBeAg controls were included in each assay. Virion DNA was assayed using the method set forth in Korba and Gerin, Antiviral Res., 19, 5,5-70 (1992), incorporated by reference herein. HBV DNA was extracted from the overlay medium containing virus particles and analyzed by a slot-blot hybridization technique using ^32 P-labelled 3.2 Kb Eco R1 HBV DNA fragment by comparisons to HBV standards present on nitrocellulose filters using an AMBIS beta scanner. EC90 values (90% effective concentration, i.e., drug concentration which induces a 90% decrease in the levels of HBV DNA replication intermediates in treated versus control cells) were calculated by linear regression analysis. The relative levels of HBsAg, HBeAg and virion DNA were calulated as a percentage of the average levels obtained from the untreated controls.

Hepatitis B virus [4] = assay: Effect of alkyl lipids on HBV replication in HBV persistently infected human HEP G2 cells (Table 6); assay type: cell-based; conditions: for Intracellular HBV DNA, Mono (episomal 3.2-3.8 Kb HBV genomes) / Intracellular HBV DNA, RI (replication intermediates): nine days
How it was run: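 Persistently HBV-infected HepG2 cells exposed to compound for nine days at 37 °C, intracellular HBV DNA analysed 24 h after day nine. Episomal 3.2-3.8 Kb genomes and replication intermediates normalized to integrated HBV DNA; virion DNA detection cut-off 0.1 pg DNA/ml culture medium.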

[5] = test system: HEP G2 cells persistently infected with HBV; assay: Cytotoxicity in HBV persistently infected human HEP G2 cells, neutral red dye uptake (Table 5); assay type: cell-based
How it was run: (§1)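 HBV-transfected HEP-G2 monolayers in RPMI-1640 were given compound at four serial concentrations in triplicate for nine days at 37 °C, with periodic medium replacement. Toxicity from 0.01% neutral red uptake (A510), as percent of nine untreated control wells on the same plate.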

[6] = as above; assay type: cell-based; conditions: human, hep-g2 cells, % of Control Neutral Red Dye Uptake
How it was run: as §1

Friend-Leukemia virus = assay: Inhibition of retrovirus-induced splenomegaly in Friend-Leukemia virus infected mice (Table 9); assay type: in vivo
Method: Mice were infected I.P. with Friend-Leukemia virus and not treated or treated I.P. with daily doses of phospholipid. After 14 days infection and treatment, the mice were sacrificed, the spleens were removed and weighed to determine the percentage, of control splenomegaly. […] Even a single dose of 25 mg/kg CP-51 inhibited splenomegaly by 36%.

[7] = test system: mouse precursor erythrocyte (CFU-E); assay: Cytotoxicity: inhibition of mouse precursor erythrocyte (CFU-E) colony formation; assay type: cell-based; conditions: Mus musculus, Erythrocyte, read-out: inhibitory concentration 50% for colony formation (IC50)
Method: CP-51 and AZT were assayed for cytotoxicity by inhibition of mouse precursor erythrocyte (CFU-E) and granulocyte/macrophage (CFU-GM) cell colony formation.

[8] = test system: granulocyte/macrophage (CFU-GM); assay: Cytotoxicity: inhibition of mouse granulocyte/macrophage (CFU-GM) colony formation; assay type: cell-based; conditions: read-out: inhibitory concentration 50% for colony formation (IC50)
Method: CP-51 and AZT were assayed for cytotoxicity by inhibition of mouse precursor erythrocyte (CFU-E) and granulocyte/macrophage (CFU-GM) cell colony formation. Mouse bone marrow precursor cells were suspended in soft-agar-RPMI-1640 medium supplmented with cell growth factors and serial concentrations of alkyl lipid.

CCCCCCCCCCCCCCCC(=O)NCC(COP(=O)([O-])OCC[N+](C)(C)C)OCC (racemic) [CP-49, rac-3-hexadecanamido-2-ethoxy-1-propylphosphocholine]
viability at 216 h, 3 µM ([1]; 3 μM, nine days, read-out: % of Control Neutral Red Dye Uptake): 99 ± 3%
viability at 216 h, 10 µM ([1]; 10 μM, nine days, read-out: % of Control Neutral Red Dye Uptake): 99 ± 4%
viability at 216 h, 30 µM ([1]; 30 μM, nine days, read-out: % of Control Neutral Red Dye Uptake): 60 ± 4%
cytotoxicity at 216 h, 30 µM ([1]; 30 μM, read-out: inhibition of neutral red dye uptake): 40%
viability at 216 h, 100 µM ([1]; 100 μM, nine days, read-out: % of Control Neutral Red Dye Uptake): 29 ± 1%
Relative Level of HBeAg (Hepatitis B virus [2]; 10 μM, nine days, 12960 min): 26 % of Untreated Control
Relative Level of HBsAg (Hepatitis B virus [2]; 10 μM, nine days, 12960 min): 113 % of Untreated Control
Relative Level of Virion DNA (Hepatitis B virus [2]; 10 μM, nine days, 12960 min): 1 % of Untreated Control
activity at 10 µM (Hepatitis B virus [2]; read-out: Relative Level of HBeAg, 10 μM, nine days): 33%
activity at 10 µM (Hepatitis B virus [2]; read-out: Relative Level of HBsAg, 10 μM, nine days): 116%
activity at 10 µM (Hepatitis B virus [2]; read-out: Relative Level of Virion DNA, 10 μM, nine days): 1%
effect on HBsAg levels released into the culture medium (Hepatitis B virus [2]; in words): None of the compounds tested
reduction in HBeAg and virion DNA levels (Hepatitis B virus [2]; in words): caused a reduction; also recorded: most active compounds in suppressing HBeAg and virion DNA levels
activity against HBV-induced virion DNA and HBeAg syntheses (Hepatitis B virus [3]; 10 μM, in words): potent inhibitory activity
activity at 10 µM (Hepatitis B virus [3]; read-out: Relative Level of HBeAg): 30%
activity at 10 µM (Hepatitis B virus [3]; read-out: Relative Level of HBsAg): 115%
activity at 10 µM (Hepatitis B virus [3]; read-out: Relative Level of Virion DNA): 1%
HBV Virion DNA (Hepatitis B virus [4]; 0.1 μM, Day 0): 71 pg/ml Culture Medium and 55 pg/ml Culture Medium and 72 pg/ml Culture Medium and 62 pg/ml Culture Medium
HBV Virion DNA (Hepatitis B virus [4]; 0.1 μM, Day 3): 72 pg/ml Culture Medium and 56 pg/ml Culture Medium and 88 pg/ml Culture Medium and 75 pg/ml Culture Medium
HBV Virion DNA (Hepatitis B virus [4]; 0.1 μM, Day 6): 62 pg/ml Culture Medium and 69 pg/ml Culture Medium and 55 pg/ml Culture Medium
HBV Virion DNA (Hepatitis B virus [4]; 0.1 μM, Day 9): 75 pg/ml Culture Medium and 65 pg/ml Culture Medium and 77 pg/ml Culture Medium and 57 pg/ml Culture Medium
Intracellular HBV DNA, Mono (episomal 3.2-3.8 Kb HBV genomes) (Hepatitis B virus [4]; 0.1 μM): 2.2 pg/μg Cell DNA and 2.3 pg/μg Cell DNA and 2.5 pg/μg Cell DNA and 2.6 pg/μg Cell DNA
Intracellular HBV DNA, RI (replication intermediates) (Hepatitis B virus [4]; 0.1 μM): 60 pg/μg Cell DNA and 61 pg/μg Cell DNA and 74 pg/μg Cell DNA and 79 pg/μg Cell DNA
HBV Virion DNA (Hepatitis B virus [4]; 1 μM, Day 0): 56 pg/ml Culture Medium and 51 pg/ml Culture Medium and 66 pg/ml Culture Medium and 79 pg/ml Culture Medium
HBV Virion DNA (Hepatitis B virus [4]; 1 μM, Day 3): 56 pg/ml Culture Medium and 58 pg/ml Culture Medium and 60 pg/ml Culture Medium and 68 pg/ml Culture Medium
HBV Virion DNA (Hepatitis B virus [4]; 1 μM, Day 6): 38 pg/ml Culture Medium and 41 pg/ml Culture Medium and 43 pg/ml Culture Medium and 44 pg/ml Culture Medium
HBV Virion DNA (Hepatitis B virus [4]; 1 μM, Day 9): 10 pg/ml Culture Medium and 13 pg/ml Culture Medium and 11 pg/ml Culture Medium and 18 pg/ml Culture Medium
Intracellular HBV DNA, Mono (episomal 3.2-3.8 Kb HBV genomes) (Hepatitis B virus [4]; 1 μM): 2.3 pg/μg Cell DNA and 2.4 pg/μg Cell DNA and 2.2 pg/μg Cell DNA and 2.1 pg/μg Cell DNA
Intracellular HBV DNA, RI (replication intermediates) (Hepatitis B virus [4]; 1 μM): 24 pg/μg Cell DNA and 20 pg/μg Cell DNA and 25 pg/μg Cell DNA and 30 pg/μg Cell DNA
HBV Virion DNA (Hepatitis B virus [4]; 10 μM, Day 0): 73 pg/ml Culture Medium and 53 pg/ml Culture Medium and 56 pg/ml Culture Medium and 77 pg/ml Culture Medium
HBV Virion DNA (Hepatitis B virus [4]; 10 μM, Day 3): 49 pg/ml Culture Medium and 55 pg/ml Culture Medium and 57 pg/ml Culture Medium and 50 pg/ml Culture Medium
HBV Virion DNA (Hepatitis B virus [4]; 10 μM, Day 6): 21 pg/ml Culture Medium and 22 pg/ml Culture Medium and 19 pg/ml Culture Medium and 24 pg/ml Culture Medium
Intracellular HBV DNA, Mono (episomal 3.2-3.8 Kb HBV genomes) (Hepatitis B virus [4]; 10 μM): 2.6 pg/μg Cell DNA and 2.4 pg/μg Cell DNA and 2.2 pg/μg Cell DNA and 2.7 pg/μg Cell DNA
Intracellular HBV DNA, RI (replication intermediates) (Hepatitis B virus [4]; 10 μM): 9 pg/μg Cell DNA and 8 pg/μg Cell DNA and 6 pg/μg Cell DNA
inhibition of HBV virion DNA and intracellular HBV RI DNA levels (Hepatitis B virus [4]; in words, versus ddC): markedly inhibited; also recorded: substantially inhibited
Cell toxicity (greater than 50% depression of dye uptake) ([5]; at concentrations with strong or moderate antiviral activity): did not occur
% of Control Neutral Red Dye Uptake ([5]; human, hep-g2 cells, 216 h, 100 µM): 29 ± 1 % of Control
viability at 216 h, 3 µM [6]: 99 ± 3%
viability at 216 h, 10 µM [6]: 97 ± 2%
viability at 216 h, 100 µM [6]: 45 ± 4%

Cc1cn([C@H]2C[C@H](N=[N+]=[N-])[C@@H](CO)O2)c(=O)[nH]c1=O [AZT, 3'-azido-3'deoxythymidine, reference compound]
inhibition of retrovirus-induced splenomegaly (Friend-Leukemia virus; 12.5 mg/kg/day intraperitoneally): 10%
% of Control Splenomegaly (Friend-Leukemia virus; 12.5 mg/kg/day, daily treatment): 10 % of Control
IC50 [7]: 0.43 µg/mL (≈ 1.61 µM)
IC50 [8]: 0.27 µg/mL (≈ 1.01 µM)
